Read-outs that look alike come from different tables or passages of the source.
Assays:
Assay type in all cases: biochemical, HCV genotype 1b
[1] = biological target: HCV NS3 protease (UniProt P26663); set-up: rows headed: difference in potency between (1R,2S) compound and its (1S,2S) isomer; other: 801 vs. corresponding (1S,2S) isomer; conditions: 801 vs. corresponding (1S,2S) isomer
Method: (§1) Recombinant HCV NS3 Protease/NS4A Cofactor Peptide Radiometric Assay
(§2) The enzyme was cloned, expressed and prepared according to the protocol described in Example 36. The enzyme was stored at −80° C., thawed on ice and diluted just prior to use in the assay buffer containing the NS4A cofactor peptide.
(§3) The substrate used for the NS3 protease/NS4A cofactor peptide radiometric assay, DDIVPC-SMSYTW, is cleaved between the cysteine and the serine residues by the enzyme. The sequence DDIVPC-SMSYTW corresponds to the NS5A/NS5B natural cleavage site in which the cysteine residue in P2 has been substituted for a proline. […] (molar ratio enzyme:cofactor 1:100) in the absence or presence of inhibitors. The separation of substrate from products is performed by adding avidin-coated agarose beads to the assay mixture followed by filtration. […]
(§4) The NS2-NS5B-3′ non coding region was cloned by RT-PCR into the pCR®3 vector (Invitrogen) using RNA extracted from the serum of an HCV genotype 1b infected individual (provided by Dr. Bernard Willems, Hôpital St-Luc, Montréal, Québec, Canada). […] Fluorescence of the N-terminal product was monitored on a Perkin-Elmer LS-50B fluorometer equipped with a 96-well plate reader (excitation wavelength: 325 nm; emission wavelength: 423 nm). […]

[2] = biological target: HCV NS3 protease (UniProt P26663); set-up: rows headed: IC50 (μM); IC50 (μM)
[3] = biological target: HCV NS3 protease (UniProt P26663); conditions: read-out: activity / potency (HCV NS3 protease inhibition); text comparison of P1 configuration
Method: as §1, §2, §3, §4

HCV NS3 protease, sequence (P26663 1027-1206, other chains not shown): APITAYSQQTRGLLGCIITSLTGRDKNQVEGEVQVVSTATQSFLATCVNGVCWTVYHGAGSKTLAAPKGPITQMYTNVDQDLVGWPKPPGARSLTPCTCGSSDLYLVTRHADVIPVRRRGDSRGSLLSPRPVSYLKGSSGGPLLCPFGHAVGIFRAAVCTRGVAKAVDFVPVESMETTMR

In the case of `C=CC1CC1(NC(=O)C1CC(Oc2cc(-c3ccccc3)nc3cc(OC)ccc23)CN1C(=O)C(NC(=O)NC(C)(C)C)C(C)(C)C)C(=O)O` (centres unmarked) [compound 801], the “difference in potency between (1R,2S) compound and its (1S,2S) isomer” value [1] is reported as “over 1500 fold”, the IC50 ([2]; Table 8) is reported as 6 nM and the IC50 [3] is reported as 6 nM.
For `C=CC1CC1(NC(=O)C1CC(Oc2cc(-c3ccccc3)nc3cc(OC)ccc23)CN1C(=O)C(NC(=O)OC(C)(C)C)C(C)(C)C)C(=O)O` (centres unmarked) [compound 901], the IC50 ([2]; Table 9) was 25 nM and the IC50 [3] was 25 nM.
